Assay results published in US11345712B2, “Protein-targeting compounds and pharmaceutical compositions thereof, and their therapeutic applications” (BioTheryX, Inc., priority 2019, dated 2022).

System: MOLM-13 cells
Test: MOLM-13 cell viability assay (CellTiter-Glo)
Type: cell-based
Conditions: Homo sapiens, MOLM-13, 72 h, 3 days, concentration of 1 μM, read-out: Antiproliferative Activity (inhibition, MOLM-13 cell viability)
Summary of the method: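 Luminescent ATP read-out (CellTiter-Glo, 10 min with shaking) after 3-day compound or DMSO exposure at 37° C, 5% CO2. Cells plated at 2,500/well in RPMI 1640 plus 10% FBS.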

Row | Structure (SMILES) | cytotoxicity at 1 µM
1 | Cc1ccc(C(F)(F)C(=O)NCc2cc3c(s2)C(=O)N(C2CCC(=O)NC2=O)C3)cc1Cl (centres unmarked) [II-38, 2-(3-chloro-4-methylphenyl)-N-((5-(2,6-dioxopiperidin-3-yl)-6-oxo-5,6-dihydro-4H-thieno[2,3-c]pyrrol-2-yl)methyl)-2,2-difluoroacetamide] | < 25%
2 | Cc1ccc(NC(=S)NCc2cc3c(s2)C(=O)N(C2CCC(=O)NC2=O)C3)cc1Cl (centres unmarked) [II-39, 1-(3-chloro-4-methylphenyl)-3-((5-(2,6-dioxopiperidin-3-yl)-6-oxo-5,6-dihydro-4H-thieno[2,3-c]pyrrol-2-yl)methyl)thiourea] | > 80%
3 | Cc1cnc(NC(=O)NCc2scc3c2CN(C2CCC(=O)NC2=O)C3=O)nc1C(F)(F)F (centres unmarked) [II-40, 1-((5-(2,6-dioxopiperidin-3-yl)-4-oxo-5,6-dihydro-4H-thieno[3,4-c]pyrrol-1-yl)methyl)-3-(5-methyl-4-(trifluoromethyl)pyrimidin-2-yl)urea] | < 25%
4 | Cc1ccc(CCCC(=O)NCc2scc3c2CN(C2CCC(=O)NC2=O)C3=O)cc1Cl (centres unmarked) [II-41, 4-(3-chloro-4-methylphenyl)-N-((5-(2,6-dioxopiperidin-3-yl)-4-oxo-5,6-dihydro-4H-thieno[3,4-c]pyrrol-1-yl)methyl)butanamide] | 25 to 50%
5 | O=C1CCC(N2Cc3cc(CNC(=O)Nc4c(Cl)cccc4Cl)sc3C2=O)C(=O)N1 (centres unmarked) [II-42, 1-(2,6-dichlorophenyl)-3-((5-(2,6-dioxopiperidin-3-yl)-6-oxo-5,6-dihydro-4H-thieno[2,3-c]pyrrol-2-yl)methyl)urea] | < 25%
6 | O=C1CCC(N2Cc3c(csc3CNC(=O)Nc3c(Cl)cccc3Cl)C2=O)C(=O)N1 (centres unmarked) [II-43, 1-(2,6-dichlorophenyl)-3-((5-(2,6-dioxopiperidin-3-yl)-4-oxo-5,6-dihydro-4H-thieno[3,4-c]pyrrol-1-yl)methyl)urea] | 25 to 50%
7 | CN(C)c1cc(NC(=O)NCc2cc3c(s2)C(=O)N(C2CCC(=O)NC2=O)C3)ccc1F (centres unmarked) [II-45, 1-(3-(dimethylamino)-4-fluorophenyl)-3-((5-(2,6-dioxopiperidin-3-yl)-6-oxo-5,6-dihydro-4H-thieno[2,3-c]pyrrol-2-yl)methyl)urea] | > 80%
8 | Cc1ccc(NC(=O)NCc2cc3c(s2)C(=O)N(C2CCC(=O)NC2=O)C3)cc1O (centres unmarked) [II-46, 1-((5-(2,6-dioxopiperidin-3-yl)-6-oxo-5,6-dihydro-4H-thieno[2,3-c]pyrrol-2-yl)methyl)-3-(3-hydroxy-4-methylphenyl)urea] | 25 to 50%
9 | CCN(CC)c1cc(NC(=O)NCc2cc3c(s2)C(=O)N(C2CCC(=O)NC2=O)C3)ccc1C (centres unmarked) [II-47, 1-(3-(diethylamino)-4-methylphenyl)-3-((5-(2,6-dioxopiperidin-3-yl)-6-oxo-5,6-dihydro-4H-thieno[2,3-c]pyrrol-2-yl)methyl)urea] | > 80%
10 | CN(C)c1cccc(NC(=O)NCc2cc3c(s2)C(=O)N(C2CCC(=O)NC2=O)C3)c1 (centres unmarked) [II-48, 1-(3-(dimethylamino)phenyl)-3-((5-(2,6-dioxopiperidin-3-yl)-6-oxo-5,6-dihydro-4H-thieno[2,3-c]pyrrol-2-yl)methyl)urea] | > 80%
11 | Cc1cc(NC(=O)NCc2cc3c(s2)C(=O)N(C2CCC(=O)NC2=O)C3)cc(N(C)C)c1 (centres unmarked) [II-49, 1-(3-(dimethylamino)-5-methylphenyl)-3-((5-(2,6-dioxopiperidin-3-yl)-6-oxo-5,6-dihydro-4H-thieno[2,3-c]pyrrol-2-yl)methyl)urea] | > 80%
12 | CN(C)c1cc(NC(=O)NCc2cc3c(s2)C(=O)N(C2CCC(=O)NC2=O)C3)cc(C(F)(F)F)c1 (centres unmarked) [II-50, 1-(3-(dimethylamino)-5-(trifluoromethyl)phenyl)-3-((5-(2,6-dioxopiperidin-3-yl)-6-oxo-5,6-dihydro-4H-thieno[2,3-c]pyrrol-2-yl)methyl)urea] | > 80%
13 | Cc1ccc(NC(=O)NCc2cc3c(s2)C(=O)N(C2CCC(=O)NC2=O)C3)cc1CN(C)C (centres unmarked) [II-51, 1-(3-((dimethylamino)methyl)-4-methylphenyl)-3-((5-(2,6-dioxopiperidin-3-yl)-6-oxo-5,6-dihydro-4H-thieno[2,3-c]pyrrol-2-yl)methyl)urea] | < 25%
14 | CCN(CC)c1ccc(NC(=O)NCc2cc3c(s2)C(=O)N(C2CCC(=O)NC2=O)C3)cc1C (centres unmarked) [II-52, 1-(4-(diethylamino)-3-methylphenyl)-3-((5-(2,6-dioxopiperidin-3-yl)-6-oxo-5,6-dihydro-4H-thieno[2,3-c]pyrrol-2-yl)methyl)urea] | < 25%
15 | CN(C)Cc1cccc(NC(=O)NCc2cc3c(s2)C(=O)N(C2CCC(=O)NC2=O)C3)c1 (centres unmarked) [II-53, 1-(3-((dimethylamino)methyl)phenyl)-3-((5-(2,6-dioxopiperidin-3-yl)-6-oxo-5,6-dihydro-4H-thieno[2,3-c]pyrrol-2-yl)methyl)urea] | < 25%
16 | Cc1ccc(NC(=O)NCc2cc3c(s2)C(=O)N(C2CCC(=O)NC2=O)C3)cc1C(C)C (centres unmarked) [II-54, 1-((5-(2,6-dioxopiperidin-3-yl)-6-oxo-5,6-dihydro-4H-thieno[2,3-c]pyrrol-2-yl)methyl)-3-(3-isopropyl-4-methylphenyl)urea] | > 80%
17 | CN(C)c1cc(NC(=O)NCc2cc3c(s2)C(=O)N(C2CCC(=O)NC2=O)C3)ccc1C(F)(F)F (centres unmarked) [II-55, 1-(3-(dimethylamino)-4-(trifluoromethyl)phenyl)-3-((5-(2,6-dioxopiperidin-3-yl)-6-oxo-5,6-dihydro-4H-thieno[2,3-c]pyrrol-2-yl)methyl)urea] | > 80%
18 | CC(C)N(C)c1cccc(NC(=O)NCc2cc3c(s2)C(=O)N(C2CCC(=O)NC2=O)C3)c1 (centres unmarked) [II-56, 1-((5-(2,6-dioxopiperidin-3-yl)-6-oxo-5,6-dihydro-4H-thieno[2,3-c]pyrrol-2-yl)methyl)-3-(3-(isopropyl(methyl)amino)phenyl)urea] | > 80%
19 | Cc1ccc(CC(=O)NCc2csc3c2CN(C2CCC(=O)NC2=O)C3=O)cc1Cl (centres unmarked) [II-57, 2-(3-chloro-4-methylphenyl)-N-((5-(2,6-dioxopiperidin-3-yl)-6-oxo-5,6-dihydro-4H-thieno[2,3-c]pyrrol-3-yl)methyl)acetamide] | 50 to 80%
20 | COc1cc(NC(=O)NCc2cc3c(s2)C(=O)N(C2CCC(=O)NC2=O)C3)ccc1C (centres unmarked) [II-58, 1-((5-(2,6-dioxopiperidin-3-yl)-6-oxo-5,6-dihydro-4H-thieno[2,3-c]pyrrol-2-yl)methyl)-3-(3-methoxy-4-methylphenyl)urea] | > 80%
21 | Cc1cc(NC(=O)NCc2cc3c(s2)C(=O)N(C2CCC(=O)NC2=O)C3)ccc1N(C)C (centres unmarked) [II-59, 1-(4-(dimethylamino)-3-methylphenyl)-3-((5-(2,6-dioxopiperidin-3-yl)-6-oxo-5,6-dihydro-4H-thieno[2,3-c]pyrrol-2-yl)methyl)urea] | < 25%
22 | CC(C)c1cc(NC(=O)NCc2cc3c(s2)C(=O)N(C2CCC(=O)NC2=O)C3)cc(N(C)C)c1 (centres unmarked) [II-60, 1-(3-(dimethylamino)-5-isopropylphenyl)-3-((5-(2,6-dioxopiperidin-3-yl)-6-oxo-5,6-dihydro-4H-thieno[2,3-c]pyrrol-2-yl)methyl)urea] | > 80%
23 | CN(C)c1ccc(CC(=O)NCc2scc3c2CN(C2CCC(=O)NC2=O)C3=O)cc1 (centres unmarked) [II-61, 2-(4-(dimethylamino)phenyl)-N-((5-(2,6-dioxopiperidin-3-yl)-4-oxo-5,6-dihydro-4H-thieno[3,4-c]pyrrol-1-yl)methyl)acetamide] | < 25%
